Experiments:
A172 cells [1] = experiment: [3H]-thymidine incorporation proliferation assay in A172 cells; format: cell-based, human; conditions: 24 hr; for promotion of proliferation by peptide alone: serum-free media, FIG. 6
Erk = experiment: Western blot of phospho-Erk in A172 cell lysates; format: cell-based, human; conditions: inhibitor added 10 minutes prior to STI1
A172 cells [2] = experiment: BrdU incorporation assay in A172 cells; format: cell-based, human; conditions: peptide 170 nM plus STI1 170 nM, 18 hours, FIG. 7A
Description: Cells were plated overnight on 24-well plates with glass coverslips, at a density of 1×10^4 cells per well, in DMEM high glucose plus 10% FCS at 37° C. Plates were washed 3 times with PBS and were maintained in DMEM without FCS for 30 hours. Cells were then treated for 18 hours with DMEM/10% FCS or DMEM plus mouse recombinant STI1 (170 nM); STI1 (170 nM) plus STI1230-245 peptide (170 nM); or STI1 (170 nM) plus STI161-76 irrelevant peptide (170 nM). Thirty minutes before the end of treatment, cells received a pulse of BrdU (35 μM) and were fixed with 4% paraformaldehyde.
Coverslips were treated with 2N HCl for 30 minutes. The reagent was then removed and borate buffer applied (boric acid 0.1M, sodium hydroxide 0.15M), pH 8.4, for 10 minutes. Then, cells were treated with PBS plus 0.2% Triton X-100 for 15 minutes. The blocking step was made with PBS/0.2% Triton with 20% horse serum, for 1 hour. […]
There were taken at least four microscopic fields of each treatment on WB filter, ranging from 330-385 nm (DAPI), plus their respective BrdU images, on WIB filter, 450-480 nm using DP controller software, Olympus. Picture files were analyzed on ImageJ software, and the percentage of BrdU positive nuclei in respect to total nuclei number (DAPI) was calculated using the Analyze Particles tool. […]

U87MG cells = experiment: BrdU incorporation assay in U87MG cells; format: cell-based, human; conditions: 24 hours; for effect of peptide on cell proliferation mediated by STI1 (BrdU): peptide 0.17 μM or 8 μM plus STI1 0.17 μM, FIG. 8; for effect of peptide on STI1-promoted U87MG proliferation (BrdU): FIG. 7B; for effect of TAT peptide on cell proliferation mediated by STI1 (BrdU): TAT peptide 0.17 μM plus STI1 0.17 μM, FIG. 9
Description: Cells were plated overnight on 24-well plates with glass cover slips, at a density of 1.5×10^4 cells per well, with DMEM with 10% FCS at 37° C. Plates were washed 3 times with PBS and were maintained in DMEM F12 for 48 hours. Cells were then treated for 24 hours with DMEM/10% FCS or DMEM plus mouse recombinant STI1 (170 nM); recombinant STI1 (170 nM) plus mouse peptide STI1230-245(ELGNDAYKKKDFDKAL) (SEQ ID NO: 1) or its human homologue peptide Hop230-245(ELGNDAYKKKDFDTAL) (SEQ ID NO: 2) (170 nM or 8 μM); STI1 (170 nM) plus STI1/Hop61-76 (GCKTVDLKPDWGKGYS) (SEQ ID NO: 3) irrelevant peptide (170 nM or 8 μM); or each one of the peptides alone. Two hours before the end of treatment, cells received a pulse of BrdU (35 μM) pulse and were fixed with 4% paraformaldehyde.
Coverslips were treated with 2N HCl for 30 minutes. The reagent was then removed and borate buffer applied (boric acid 0.1M, sodium hydroxide 0.15M), pH 8.4, for 10 minutes. Then, cells were treated with PBS plus 0.2% Triton X-100 for 15 minutes. The blocking step was made with PBS/0.2% Triton with 20% horse serum, for 1 hour. Primary anti-BrdU biotinylated antibodies (1:100) were applied overnight (diluted in PBS/0.2% Triton with 1% horse serum). Coverslips were washed 3 times with PBS and incubated for one hour with Strepta-Alexa 488 and DAPI reagents (1:1000), washed more 3 times with PBS and assembled to slides.
There were taken at least four microscopic fields of each treatment on WB filter, ranging from 330-385 nm (DAPI), plus their respective BrdU images, on WIB filter, 450-480 nm using DP controller software, Olympus. Picture files were analyzed on ImageJ software, and the percentage of BrdU positive nuclei in respect to total nuclei number (DAPI) was calculated using the Analyze Particles tool.
FIG. 7B: Treatment of U87MG cells with STI1230-245 peptide abrogates cell proliferation mediated by STI1. U87MG human glioblastoma cells were plated at 1.5×10^4 confluence on glass cover slips of 12 mm. After overnight adherence, cells were starved on serum-free media for 48 hours. Cells were subjected to distinct treatments (see picture) for 24 hours, and a BrdU pulse of 32 μM was performed on the last 2 hours of treatment. Immunofluorescence and cell imaging were done in order to permit absolute cell counting. Values represent percentage of BrdU positive cell nuclei from total number of cell nuclei. FCS (fetal calf serum), STI1/Hop (0.17 μM or 8 μM) and/or STI1230-245 (0.17 μM or 8 μM) and/or STI1/Hop61-76 (irrelevant N-terminus STI1/Hop peptide, 0.17 μM or 8 μM). *Statistically significant from control (without treatment), p<0.001. Bars shown as mean±SEM.
FIG. 8: Hop230-245 peptide inhibits the U87MG cell proliferation mediated by STI1. U87MG human glioblastoma cells were plated at 1.5×10^4 confluence on glass cover slips of 12 mm. After overnight adherence, cells were starved on serum-free media for 48 hours. Cells were subjected to distinct treatments (see picture) for 24 hours, and a BrdU pulse of 32 μM was performed on the last 2 hours of treatment. Immunofluorescence and cell imaging were done in order to permit absolute cell counting. Values represent percentage of BrdU positive cell nuclei from total number of cell nuclei. STI1 (0.17 μM) and/or Hop230-245 (0.17 μM or 8 μM) and/or STI1/Hop61-76 (irrelevant STI1/Hop61-76, 0.17 μM or 8 μM). *Statistically significant from control (without treatment), p<0.01. Bars shown as mean±SEM.
FIG. 9: Treatment of U87MG cells with TAT-STI1230-245 and TAT-Hop230-245 peptides inhibits cell proliferation mediated by STI1. U87MG human glioblastoma cells were plated at 1.5×10^4 confluence on glass cover slips of 12 mm. After overnight adherence, cells were starved on serum-free media for 48 hours. Cells were subjected to distinct treatments (see picture) for 24 hours, and a BrdU pulse of 32 μM was performed on the last 2 hours of treatment. Immunofluorescence and cell imaging were done in order to permit absolute cell counting. […]

[3] = target: cellular prion protein (PrP^C), endogenous, on human glioblastoma cells (A172, U87MG) (human (A172 human glioblastoma cell line)) (UniProt P04156); experiment: cell-based or functional assay
rats = experiment: One-trial step-down inhibitory avoidance (IA) long-term memory test; format: in vivo, rat
Text: Rats were trained in a one-trial, step-down IA paradigm, a hippocampal-dependent learning task in which stepping down from a platform present in a given context is associated with a foot shock, resulting in an increase in step-down latency when the animal is brought back to the training chamber for a retention test (Cammarota et al., 2004). The IA apparatus was a 50×25×25 cm Plexiglas box with a 5-cm-high, 8-cm-wide and 25-cm-long platform on the left end of a series of bronze bars that constitutes the floor of the box. During training, each animal was gently placed on the platform facing the left rear corner of the training box. When an animal stepped down and placed all four of its paws on the grid, it received a 2-s, 0.5-mA foot shock and was then immediately withdrawn from the training box. Animals were replaced in the IA box for retention testing 90 min (for short-term memory (STM)), or 24 h later (for long-term memory (LTM)); their latency to step down onto the grid was recorded. The difference between the training and test-session step-down latencies was taken as a measure of retention. Better memory for the training was inferred from longer retention latencies (Bernabeu et al., 1997; Izquierdo et al., 1997). The maximum retention latency allowed was 180 s, at which time the animal was taken out of the IA box if it had not stepped down and given a score of 180 s. Full details of the experimental protocols can be found in Coitinho et al., 2007.
The data obtained in tests of the effect of peptides on rat long-term memory are presented as medians±interquartile range and were analyzed by the Kruskal-Wallis nonparametric test followed by Dunn's post-hoc (n=10 to 13 animals for each treatment group). In all comparisons, p<0.05 was taken as a significant difference.
FIG. 11: STI1230-245 peptide and TAT-STI1230-245 peptides are capable of increasing long-term memory. The latency to step down before treated rats was recorded (Training) and immediately after training animals received a bilateral hippocampal infusion of saline, STI1230-245 peptide, TAT-STI1230-245 or TAT-STI161-76 irrelevant peptide at the concentration of 15 ng/μl in a total volume of 0.5 μl/side. The latency to step down was tested again 24 hours later (LTM test) and measures Long-term memory (LTM). Data are shown as mean±SE of step-down latencies (n=12 rats in each group). *p<0.05 vs control.

For N#CC(=C(/N)Sc1ccccc1N)/C(C#N)=C(\N)Sc1ccccc1N [U0126], the “effect of inhibitor on STI1-induced proliferation” value (A172 cells [1]; U0126 10 μM or LY294002 5 μM added 10 minutes before STI1 170 nM) was “completely abolished STI1-induced proliferation” and the “effect of co-treatment on STI1-induced Erk activation” value (Erk) was “abolished”.

“GCKTVDLKPDWGKGYS (listed as Homo sapiens) [STI1/Hop61-76, N-terminus irrelevant STI1/Hop peptide, reference compound]” was tested, and the “effect of peptide on STI1-induced proliferation (BrdU)” value (A172 cells [2]) was “no effect”, the “effect of peptide on cell proliferation mediated by STI1 (BrdU)” value (“effect of peptide … by STI1 (BrdU)” for short) (U87MG cells) was “had no effect upon proliferation mediated by STI1” and the “promotion of proliferation by peptide alone” value (A172 cells [1]) was “did not enhance proliferation”.

Work on “recombinant mouse stress-inducible phosphoprotein 1 (STI1), wild type (from UniProt Q60864 1-543) (ligand)” yielded a BrdU incorporation (proliferation) of A172 cells [3] of 1.5 fold, a BrdU incorporation (proliferation) of U87MG cells [3] of 3 fold and a [3H]-thymidine incorporation of A172 cells, concentration of the maximum effect [3] of 170 nM.

With “ELGNDAYKKKDFDTAL (listed as Homo sapiens) [Hop230-245, human homologue of mouse STI1230-245 peptide]” the “effect of peptide … by STI1 (BrdU)” value (U87MG cells) was “able to abrogate the cell proliferation mediated by STI1” and the “effect in memory consolidation” value (rats; rats, FIG. 11) was “potent effect in memory consolidation”.

For “ELGNDAYKKKDFDKAL (listed as Mus musculus) [STI1230-245]”, the “effect of peptide on STI1-induced proliferation (BrdU)” value (A172 cells [2]) was “inhibited STI1-induced proliferation”, the “effect of peptide … by STI1 (BrdU)” value (U87MG cells) was “able to abrogate the cell proliferation mediated by STI1” and the “effect of peptide on STI1-promoted U87MG proliferation (BrdU)” value (U87MG cells; peptide 170 nM plus STI1 170 nM) was “blocked”. The “effect of peptide on STI1-promoted U87MG proliferation (BrdU)” value (U87MG cells; peptide 8 μM plus STI1 170 nM) was “blocked”, the “promotion of proliferation by peptide alone” value (A172 cells [1]) was “unable by itself to promote proliferation” and the “long-term memory (retention latency, LTM test 24 hours after training)” value (rats; bilateral hippocampal infusion immediately after training, 15 ng/μl, 0.5 μl/side) was “greatly enhanced long-term memory”. The “effect in memory consolidation” value (rats; rats, FIG. 11) was “potent effect in memory consolidation”.

In the case of “YGRKKRRQRRRELGNDAYKKKDFDTAL (conjugate of seq id nos 2 and 8) [TAT-Hop230-245]”, the “effect of TAT peptide on cell proliferation mediated by STI1 (BrdU)” value (U87MG cells) is reported as “able to block cell proliferation mediated by STI1” and the “effect in memory consolidation” value (rats; rat, in vivo) is reported as “potent effect in memory consolidation”.

With “YGRKKRRQRRRELGNDAYKKKDFDKAL (conjugate of seq id nos 1 and 8) [TAT-STI1230-245]” the “effect of TAT peptide on cell proliferation mediated by STI1 (BrdU)” value (U87MG cells) was “able to block cell proliferation mediated by STI1”, the “effect in memory consolidation” value (rats; rat, in vivo) was “potent effect in memory consolidation” and the “long-term memory (retention latency, LTM test 24 hours after training)” value (rats; rat, in vivo) was “greatly enhanced long-term memory”.

Reference: patent US8802631B2, “Peptides and methods for the treatment of gliomas and other cancers” (Ludwig Institute for Cancer Research Ltd., priority 2007, dated 2014)
